Results from patent US10407467B2, “Polymyxin derivatives and their use in combination therapy together with different antibiotics” (priority 2013, dated 2019).
Bridge positions count the residues as written; N and C are the ends. Square brackets hold non-standard residues; d marks the D form. Peptide text beside a SMILES is read from it. * marks the point of attachment. ξ: configuration not given here. ξβ3hGly(cHex) = NC(CC(=O)*)C1CCCCC1; Thr(3ξ) = CC(O)[C@H](N)C(=O)O; Dab = NCC[C@H](N)C(=O)O

What was measured:
Acinetobacter baumannii = experiment: MIC, sole activity (no second agent); format: cell-based
In short: (§1)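 Compound tested without a second agent in cation-adjusted MHB, up to four strains per species, inoculum at 0.5 McFarland from colonies grown 18-24 h on Mueller-Hinton agar. Run in duplicate, invalid beyond 2-fold disagreement, lower duplicate or modal repeat value given, expressed relative to Polymyxin B.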

Escherichia coli = experiment: MIC, sole activity (no second agent); format: cell-based
In short: as §1

Klebsiella pneumoniae = experiment: MIC, sole activity (no second agent); format: cell-based
In short: as §1

Pseudomonas aeruginosa = experiment: MIC, sole activity (no second agent); format: cell-based
In short: as §1

[1] = tested on: Escherichia coli isolate ATCC25922; conditions: 10 mg/kg/day (5 mg/kg BID subcutaneous), neutropenic CD-1 mice, 24 h post-infection
[2] = tested on: Klebsiella pneumoniae ATCC10031; conditions: 10 mg/kg/day, neutropenic mice thigh infection
[3] = Second Agent none (Table 7B, by row order)

CC(C)C[C@@H]1NC(=O)[C@@H](Cc2ccccc2)NC(=O)[C@H](CCN)NC(=O)[C@@H](NC(=O)[C@H](CCN)NC(=O)[C@@H](NC(=O)CC(N)C2CCCCC2)C(C)O)CCNC(=O)[C@H](C(C)O)NC(=O)[C@H](CCN)NC(=O)[C@H](CCN)NC1=O (stereo partly drawn) [Example 10, [3(R,S)-3-Amino-3-cyclohexane-propanoyl]Polymyxin B nonapeptide] ({ξβ3hGly(cHex)}-[Thr(3ξ)][Dab][Dab][Dab][dF]L[Dab][Dab][Thr(3ξ)]; lactam 3-C)
MIC A. baumannii NCTC 13424 (Acinetobacter baumannii; [3]): 2 micrograms/mL | MIC A. baumannii NCTC 13424 (Acinetobacter baumannii; Second Agent none (Table 7E)): 0.5 micrograms/mL | MIC A. baumannii NCTC 13424 (Acinetobacter baumannii; Table 7F, A. baumannii NCTC 13424, second agent none): 0.5 micrograms/mL | MIC A. baumannii NCTC 13424 (Acinetobacter baumannii; Table 7H, A. baumannii NCTC 13424, second agent none): 0.5 micrograms/mL | MIC A. baumannii ATCC13424 (Acinetobacter baumannii; in the absence of Rifampicin, strain ATCC13424): 1 micrograms/mL | MIC A. baumannii ATCCBAA-747 (Acinetobacter baumannii; in the absence of Rifampicin, strain ATCCBAA-747): 0.5 micrograms/mL | MIC A. baumannii CCUG57249 (Acinetobacter baumannii; in the absence of Rifampicin, strain CCUG 57249): 0.5 micrograms/mL | MIC A. baumannii NCTC 13423 (Acinetobacter baumannii; in the absence of Rifampicin, strain NCTC13423): 0.125 micrograms/mL | MIC E. coli NCTC9001 (Escherichia coli; E. coli NCTC9001, second agent none): 4 micrograms/mL | MIC E. coli NCTC9001 (Escherichia coli; Second Agent none (Table 7A)): 4 microgram/mL | MIC E. coli ATCC25922 (Escherichia coli; Second Agent none (Table 7B)): 4 micrograms/mL | MIC E. coli CCUG 59342 (Escherichia coli; Second Agent none (Table 7B)): 0.5 micrograms/mL | MIC E. coli NCTC9001 (Escherichia coli; Second Agent none (Table 7B)): 8 micrograms/mL | MIC E. coli NCTC9001 (Escherichia coli; Second Agent none (Table 7C)): 4 micrograms/mL | MIC E. coli ATCC25922 (Escherichia coli; Second Agent none (Table 7E)): 8 micrograms/mL | MIC E. coli NCTC 13441 (Escherichia coli; Second Agent none (Table 7E)): 8 micrograms/mL | MIC E. coli ATCC25922 (Escherichia coli; Table 7F, E. coli ATCC25922, second agent none): 8 micrograms/mL | MIC E. coli NCTC 13441 (Escherichia coli; Table 7F, E. coli NCTC 13441, second agent none): 8 micrograms/mL | MIC E. coli ATCC25922 (Escherichia coli; Table 7G, E. coli ATCC25922, second agent none): 8 micrograms/mL | MIC E. coli ATCC25922 (Escherichia coli; Table 7H, E. coli ATCC25922, second agent none): 8 micrograms/mL | MIC E. coli NCTC 13441 (Escherichia coli; Table 7H, E. coli NCTC 13441, second agent none): 8 micrograms/mL | MIC E. coli ATCC25922 (Escherichia coli; Table 7I, E. coli ATCC25922, second agent none): 8 micrograms/mL | MIC E. coli ATCC25922 (Escherichia coli; in the absence of Rifampicin, strain ATCC25922): 2 micrograms/mL | MIC E. coli NCTC9001 (Escherichia coli; in the absence of Rifampicin, strain NCTC9001): 4 micrograms/mL | MIC K. pneumoniae ATCC BAA-1706 (Klebsiella pneumoniae; K. pneumoniae ATCC BAA-1706, second agent none): 0.5 micrograms/mL | MIC K. pneumoniae CCUG 59348 (Klebsiella pneumoniae; K. pneumoniae CCUG 59348, second agent none): >32 micrograms/mL | MIC K. pneumoniae NCTC 13442 (Klebsiella pneumoniae; K. pneumoniae NCTC 13442, second agent none): >32 micrograms/mL | MIC K. pneumoniae CCUG 59348 (Klebsiella pneumoniae; Second Agent none (Table 7A)): >32 microgram/mL | MIC K. pneumoniae CCUG 59626 (Klebsiella pneumoniae; Second Agent none (Table 7A)): 0.25 microgram/mL | MIC K. pneumoniae NCTC 13442 (Klebsiella pneumoniae; Second Agent none (Table 7A)): >32 microgram/mL | MIC K. pneumoniae CCUG 59348 (Klebsiella pneumoniae; Second Agent none (Table 7B)): >32 micrograms/mL | MIC K. pneumoniae NCTC 13442 (Klebsiella pneumoniae; Second Agent none (Table 7B)): >32 micrograms/mL | MIC K. pneumoniae ATCC 4352 (Klebsiella pneumoniae; [3]): 0.5 micrograms/mL | MIC K. pneumoniae ATCC BAA-1706 (Klebsiella pneumoniae; [3]): 0.5 micrograms/mL | MIC K. pneumoniae CCUG 59348 (Klebsiella pneumoniae; Second Agent none (Table 7C)): >32 micrograms/mL | MIC K. pneumoniae NCTC 13442 (Klebsiella pneumoniae; Second Agent none (Table 7C)): >32 micrograms/mL | MIC K. pneumoniae ATCC 4352 (Klebsiella pneumoniae; Second Agent none (Table 7E)): 1 micrograms/mL | MIC K. pneumoniae CCUG 59349 (Klebsiella pneumoniae; Second Agent none (Table 7E)): 8 micrograms/mL | MIC K. pneumoniae ATCC 4352 (Klebsiella pneumoniae; Table 7F, K. pneumoniae ATCC4352, second agent none): 1 micrograms/mL | MIC K. pneumoniae CCUG 59349 (Klebsiella pneumoniae; Table 7F, K. pneumoniae CCUG 59349, second agent none): 8 micrograms/mL | MIC K. pneumoniae ATCC 4352 (Klebsiella pneumoniae; Table 7G, K. pneumoniae ATCC4352, second agent none): 1 micrograms/mL | MIC K. pneumoniae ATCC 4352 (Klebsiella pneumoniae; Table 7H, K. pneumoniae ATCC4352, second agent none): 1 micrograms/mL | MIC K. pneumoniae CCUG 59349 (Klebsiella pneumoniae; Table 7H, K. pneumoniae CCUG 59349, second agent none): 8 micrograms/mL | MIC K. pneumoniae ATCC 4352 (Klebsiella pneumoniae; Table 7I, K. pneumoniae ATCC4352, second agent none): 1 micrograms/mL | MIC K. pneumoniae ATCC 4352 (Klebsiella pneumoniae; in the absence of Rifampicin, strain ATCC 4352): 1 micrograms/mL | MIC K. pneumoniae ATCC-BAA2146 (Klebsiella pneumoniae; in the absence of Rifampicin, strain ATCC-BAA2146): 32 micrograms/mL | MIC K. pneumoniae CCUG-59348 (Klebsiella pneumoniae; in the absence of Rifampicin, strain CCUG-59348): >32 micrograms/mL | MIC K. pneumoniae NCTC-13438 (Klebsiella pneumoniae; in the absence of Rifampicin, strain NCTC-13438): >32 micrograms/mL | MIC P. aeruginosa CCUG 59626 (Pseudomonas aeruginosa; P. aeruginosa CCUG 59626, second agent none): 0.25 micrograms/mL | MIC P. aeruginosa ATCC 27853 (Pseudomonas aeruginosa; [3]): 0.25 micrograms/mL | MIC P. aeruginosa CCUG 59626 (Pseudomonas aeruginosa; [3]): 0.25 micrograms/mL | MIC P. aeruginosa CCUG 59626 (Pseudomonas aeruginosa; Second Agent none (Table 7C)): 0.25 micrograms/mL | MIC P. aeruginosa ATCC 10145 (Pseudomonas aeruginosa; Second Agent none (Table 7E)): 0.25 micrograms/mL | MIC P. aeruginosa ATCC 10145 (Pseudomonas aeruginosa; Table 7F, P. aeruginosa ATCC 10145, second agent none): 0.25 micrograms/mL | MIC P. aeruginosa ATCC 10145 (Pseudomonas aeruginosa; Table 7H, P. aeruginosa ATCC 10145, second agent none): 0.25 micrograms/mL | MIC P. aeruginosa ATCC 27853 (Pseudomonas aeruginosa; in the absence of Rifampicin, strain ATCC27853): 0.5 micrograms/mL | MIC P. aeruginosa ATCC-47 (Pseudomonas aeruginosa; in the absence of Rifampicin, strain ATCC-47): 1 micrograms/mL | MIC P. aeruginosa ATCCCRM-9027 (Pseudomonas aeruginosa; in the absence of Rifampicin, strain ATCCCRM-9027): 0.25 micrograms/mL | MIC P. aeruginosa CCUG 59626 (Pseudomonas aeruginosa; in the absence of Rifampicin, strain CCUG 59626): 0.25 micrograms/mL | reduction in bacterial counts [1]: over 3 log10 | reduction in bacterial counts [2]: approx. 2 log10
